Results published in patent US20060211887A1, “Phosphate salts of 6-dimethylaminomethyl-1-(3-methoxyphenyl)-1,3-dihydroxy-cyclohexane compounds” (priority 2005, published 2006).
“Also recorded” adds a separate entry of the source.

Key:
[1] = Storage at defined relative atmospheric humidity (approx. 75% or 95%, then approx. 4%) with thermogravimetric analysis, weighing and X-ray powder diffractometry; assay type: physicochemical; conditions: for % pt during / % pt after / % pt (middle): vs before storage; for Form during / Form after / Form middle: X-ray powder diffractometry; for Laboratory after: storage step approx. 4 (±5) % r.h. approx. 20 h; for Laboratory during %: storage step approx. 75 (±5) % r.h. approx. 7 days; for Laboratory during: storage step approx. 95 (±5) % r.h. approx. 7 days
Description: Storage of the hydrochloride salts, which are not according to the invention (identified H1 to H3 in the following examples of compounds; for the synthesis see the subsequent experimental part), at room temperature over saturated sodium chloride solution results in a relative atmospheric humidity of approx. 75% (±5%). Storage of the samples at room temperature over saturated potassium sulfate solution results in a relative atmospheric humidity of approx. 95% (±5%).
Storage of the samples at room temperature over drying beads (blau+, Engelhardt, Nienburg) results in a relative atmospheric humidity of approx. 4% (±5%).
The samples were stored at approx. 75% relative atmospheric humidity for approx. 8.5 days. The samples were then stored at a relative atmospheric humidity of approx. 4% for a further approx. 6 h.
They were analyzed for their loss in weight by means of thermogravimetric analyses (amount of sample approx. 5-20 mg, heating rate approx. 10 K/min, heating range from approx. 25° C. to approx. 240° C.).
The approximate difference in the moisture content (in percentage points; % pt) from after the storage to before the particular storage step is stated.
In addition, the percentage change in the total weight of the sample occurring in the respective storage step was determined by weighing (“laboratory”).
The crystalline form was determined by means of X-ray powder diffractometry.
The samples were stored at approx. 95% relative atmospheric humidity for approx. 8.5 days. The samples were then stored at a relative atmospheric humidity of approx. 4% for a further approx. 6 h.
The approximate difference in the moisture content (in percentage points; % pt) from after the storage to before the storage is stated.
The samples were stored at approx. 75% relative atmospheric humidity for approx. 7 days. The samples were then stored at a relative atmospheric humidity of approx. 4% for a further approx. 2.5 days.
The approximate difference in the moisture content (in percentage points; % pt) from after the storage step to before the storage is stated.
The samples were stored at approx. 95% relative atmospheric humidity for approx. 7 days. The samples were then stored at a relative atmospheric humidity of approx. 4% for a further approx. 7 days.
Storage of the phosphate salts I-P according to the invention, called samples in the following, at room temperature over saturated sodium chloride solution results in a relative atmospheric humidity of approx. 75 (±5) % . Storage of the samples at room temperature over saturated potassium sulfate solution results in a relative atmospheric humidity of approx. 95 (±5) %.
Storage of the samples at room temperature over drying beads (blau+, Engelhardt, Nienburg) results in a relative atmospheric humidity of approx. 4 (±5) %.
The samples were stored at approx. 75 (±5) % relative atmospheric humidity for approx. 8.5 days. The samples were then stored at a relative atmospheric humidity of approx. 4 (±5) % for a further approx. 6 h.
The samples were stored at approx. 95 (±5) % relative atmospheric humidity for approx. 8.5 days. The samples were then stored at a relative atmospheric humidity of approx. 4 (±5) % for a further approx. 6 h.
The samples were stored at approx. 75 (±5) % relative atmospheric humidity for approx. 7 days. The samples were then stored at a relative atmospheric humidity of approx. 4 (±5) % for a further approx. 20 h.
The samples were stored at approx. 95 (±5) % relative atmospheric humidity for approx. 7 days. The samples were then stored at a relative atmospheric humidity of approx. 4 (±5) % for a further approx. 20 h.
Sample P3 was kept in the laboratory for approx. 55 minutes under ambient conditions before the second storage step.
The interpretation of the specified data is explained again in more detail by the example of the data for P1 given in the preceding Table 8:
Storage of 1: • first storage step: 95% atmospheric humidity • second storage step: 4% atmospheric humidity […]

[2] = Drying of form B of the phosphate salt in vacuo, physical form checked by X-ray powder diffractometry, thermal analysis and 1H NMR; assay type: physicochemical
Description: The form B was dried for 13 hours at 40° C. in vacuo.
The form B was dried for 24 hours at 40° C. in vacuo.
Form B was dried at 68° C. in a drying cabinet in vacuo for 3 days.

[3] = after approx. 75 (±5) % r.h. approx. 7 days
[4] = after approx. 95 (±5) % r.h. approx. 7 days
[5] = approx. 75 (±5) % r.h. approx. 7 days, then approx. 4 (±5) % approx. 20 h
[6] = approx. 75 (±5) % r.h. approx. 8.5 days, then approx. 4 (±5) % approx. 6 h
[7] = approx. 95 (±5) % r.h. approx. 7 days, then approx. 4 (±5) % approx. 20 h
[8] = approx. 95 (±5) % r.h. approx. 8.5 days, then approx. 4 (±5) % approx. 6 h
[9] = after approx. 75% r.h. approx. 7 days
[10] = after approx. 95% r.h. approx. 7 days
[11] = approx. 75% r.h. approx. 7 days, then approx. 4% approx. 2.5 days
[12] = approx. 75% r.h. approx. 8.5 days, then approx. 4% approx. 6 h
[13] = approx. 75% relative atmospheric humidity approx. 8.5 days, then approx. 4% approx. 6 h
[14] = approx. 95% r.h. approx. 7 days, then approx. 4% approx. 7 days
[15] = approx. 95% r.h. approx. 8.5 days, then approx. 4% approx. 6 h
[16] = storage step approx. 4% r.h. approx. 2.5 days, after 75% r.h. 7 days
[17] = storage step approx. 4% r.h. approx. 7 days, after 95% r.h. 7 days
[18] = storage step approx. 75% r.h. approx. 7 days
[19] = storage step approx. 95% r.h. approx. 7 days

Structure (SMILES) | % pt during [1, 3] | Form during [1, 3] | % pt during [1, 4] | Form during [1, 4] | % pt after [1, 5] | Form after [1, 5] | % pt [1, 6] | Laboratory (percentage change in total weight by weighing) [1, 6] | Form after [1, 6] | % pt after [1, 7] | Form after [1, 7] | % pt [1, 8] | Laboratory (percentage change in total weight by weighing) [1, 8] | Form after [1, 8] | Laboratory after ([1]; after 75% r.h. 7 days) | Laboratory after ([1]; after 95% r.h. 7 days) | Laboratory during % [1] | also measured
COc1cccc([C@@]2(O)C[C@H](O)CC[C@@H]2CN(C)C)c1 (racemic) [Sample P1, (1RS,3RS,6RS)-6-dimethylaminomethyl-1-(3-methoxyphenyl)-cyclohexane-1,3-diol] | −0.21 % pt | form A | −0.19 % pt | form A | −0.04 % pt | form A | −0.05 % pt | −0.01% | form A | −0.02 % pt | form A | −0.22 % pt | +0.12% | form A | +0.07% | −0.04% | −0.08% | Weight loss TG (afterwards) ([1]; after second storage step at ca. 4% atmospheric humidity): −4.38%; Weight loss TG (intermediate) ([1]; after storage at 95% atmospheric humidity approx. 7 days): −4.55%; Weight loss TG (beforehand) ([1]; before storage, thermogravimetry approx. 25-240° C.): −4.36%
COc1cccc([C@@]2(O)C[C@H](O)CC[C@@H]2CN(C)C)c1 (racemic) [Sample P2, (1RS,3RS,6RS)-6-dimethylaminomethyl-1-(3-methoxyphenyl)-cyclohexane-1,3-diol] | −0.42 % pt | form A | −0.24 % pt | form A | −0.44 % pt | form A | −0.17 % pt | +0.06% | form A | −0.21 % pt | form A | −0.25 % pt | +0.02% | form A | +0.08% | −0.60% | +0.02% | Laboratory during [1]: +0.52%
COc1cccc([C@@]2(O)C[C@H](O)CC[C@@H]2CN(C)C)c1 (racemic) [Sample P3, (1RS,3RS,6RS)-6-dimethylaminomethyl-1-(3-methoxyphenyl)-cyclohexane-1,3-diol] | −0.25 % pt | form A | +0.21 % pt | form A | −0.33 % pt | form A | −0.24 % pt | −0.47% | form A | +0.27 % pt | form A | −0.25 % pt | −0.39% | form A | −0.75% | −0.04% | +0.23% | Laboratory during [1]: 5.33%
COc1cccc([C@@]2(O)C[C@H](O)CC[C@@H]2CN(C)C)c1 (racemic) [form B, (1RS,3RS,6RS)-6-dimethylaminomethyl-1-(3-methoxyphenyl)-cyclohexane-1,3-diol] |  |  |  |  |  |  |  |  |  |  |  |  |  |  |  |  |  | Change in the physical form on drying ([2]; 68° C. in a drying cabinet in vacuo for 3 days): converted into amorphous material; Change in the physical form on drying ([2]; 13 hours at 40° C. in vacuo): no changes in the physical form were observed; Change in the physical form on drying ([2]; 24 hours at 40° C. in vacuo): no changes in the physical form were observed
COc1cccc(C2(O)CC(O)CCC2CN(C)C)c1 (centres unmarked) [Sample H1, 6-dimethylaminomethyl-1-(3-methoxyphenyl)-1,3-dihydroxy-cyclohexane] |  |  |  |  |  |  |  |  |  |  |  |  |  |  |  |  |  | % pt (middle) [1, 9]: −2.73 % pt; Form middle [1, 9]: form A,; also recorded: form B,; also recorded: form C,; also recorded: form D; % pt (middle) [1, 10]: −4.88 % pt; Form middle [1, 10]: form B; % pt after [1, 11]: 0.53 % pt; Form after [1, 11]: form B,; also recorded: form A; % pt (difference in the moisture content, thermogravimetry, after vs before storage) [1, 12]: −1.22 % pt; Laboratory/% (percentage change in total weight by weighing) [1, 12]: +1.14%; Form after [1, 13]: form B, further; % pt after [1, 14]: −3.84 % pt; Form after [1, 14]: form B; % pt (difference in the moisture content, thermogravimetry) [1, 15]: −4.89 % pt; Laboratory/% (percentage change in total weight by weighing) [1, 15]: +4.99%; Form after [1, 15]: form B, further; Laboratory/% (after) [1, 16]: −1.24%; Laboratory/% (after) [1, 17]: −22.76%; Laboratory/% (middle) [1, 18]: 2.89%; Laboratory/% (middle) [1, 19]: +13.72%
COc1cccc(C2(O)CC(O)CCC2CN(C)C)c1 (centres unmarked) [Sample H2, 6-dimethylaminomethyl-1-(3-methoxyphenyl)-1,3-dihydroxy-cyclohexane] |  |  |  |  |  |  |  |  |  |  |  |  |  |  |  |  |  | % pt (difference in the moisture content, thermogravimetry, after vs before storage) [1, 12]: −2.85 % pt; Laboratory/% (percentage change in total weight by weighing) [1, 12]: +2.61%; Form after [1, 13]: form B, further; % pt (difference in the moisture content, thermogravimetry) [1, 15]: −4.95 % pt; Laboratory/% (percentage change in total weight by weighing) [1, 15]: +4.88%; Form after [1, 15]: form B, further
COc1cccc(C2(O)CC(O)CCC2CN(C)C)c1 (centres unmarked) [Sample H3, 6-dimethylaminomethyl-1-(3-methoxyphenyl)-1,3-dihydroxy-cyclohexane] |  |  |  |  |  |  |  |  |  |  |  |  |  |  |  |  |  | % pt (middle) [1, 9]: −4.75 % pt; Form middle [1, 9]: form B; % pt (middle) [1, 10]: −2.37 % pt; Form middle [1, 10]: form B; % pt after [1, 11]: 0.46 % pt; Form after [1, 11]: form B; % pt after [1, 14]: −0.49 % pt; Form after [1, 14]: form B; Laboratory/% (after) [1, 16]: +3.68%; Laboratory/% (after) [1, 17]: −9.19%; Laboratory/% (middle) [1, 18]: +0.02%; Laboratory/% (middle) [1, 19]: +4.34%
